Measured values as given in article PMC5130005, “Indolin-2-one compounds targeting thioredoxin reductase as potential anticancer drug leads” (Oncotarget, 2016).

Legend:
bovine GPx = target: T1, bovine GPx (Bos taurus, UniProt P00435); experiment: in vitro bovine GPx activity assay; assay type: biochemical; details: 60 min incubation, 1-100 μM, 100 nM bovine GPx
T1 construct: purchased Sigma
T1 sequence (P00435 1-205): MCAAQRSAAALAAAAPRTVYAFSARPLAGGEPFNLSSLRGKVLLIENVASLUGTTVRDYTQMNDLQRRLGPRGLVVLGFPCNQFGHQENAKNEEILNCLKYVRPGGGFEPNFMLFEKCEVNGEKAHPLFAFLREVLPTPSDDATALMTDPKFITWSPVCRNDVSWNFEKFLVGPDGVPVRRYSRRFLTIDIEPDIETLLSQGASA
Procedure: For determination of in vitro bovine GPx activity, compounds of concentrations 1-100 μM were incubated with 100 nM bovine GPx, 20 nM yeast GR, 1 mM GSH and 200 μM NADPH in a volume of 100 μl phosphate buffer (0.1 M sodium phosphate, 2 mM EDTA pH 7.5) for 1 h at room temperature. H2O2 solution in phosphate buffer was added to initiate the reaction (final concentration 1.5 mM). NADPH consumption was monitored at 340 nm using the VersaMax microplate reader. The cellular GPx activity was determined similarly except lysates of HCT 116 and MCF-7 cells (25 μg protein) were used instead of bovine GPx. The results were calculated based on decrease in absorbance in the initial 3 min and presented as % of GPx activity of drug-treated sample over that of DMSO-treated sample.

yeast GR = target: T2, yeast GR (Saccharomyces cerevisiae, UniProt P41921); experiment: in vitro yeast GR activity (glutathione reduction assay); assay type: biochemical; details: 60 min incubation, 1-100 μM, 20 nM yeast GR, 200 μM NADPH
T2 construct: purchased Sigma
T2 sequence (P41921 17-483 limits assumed): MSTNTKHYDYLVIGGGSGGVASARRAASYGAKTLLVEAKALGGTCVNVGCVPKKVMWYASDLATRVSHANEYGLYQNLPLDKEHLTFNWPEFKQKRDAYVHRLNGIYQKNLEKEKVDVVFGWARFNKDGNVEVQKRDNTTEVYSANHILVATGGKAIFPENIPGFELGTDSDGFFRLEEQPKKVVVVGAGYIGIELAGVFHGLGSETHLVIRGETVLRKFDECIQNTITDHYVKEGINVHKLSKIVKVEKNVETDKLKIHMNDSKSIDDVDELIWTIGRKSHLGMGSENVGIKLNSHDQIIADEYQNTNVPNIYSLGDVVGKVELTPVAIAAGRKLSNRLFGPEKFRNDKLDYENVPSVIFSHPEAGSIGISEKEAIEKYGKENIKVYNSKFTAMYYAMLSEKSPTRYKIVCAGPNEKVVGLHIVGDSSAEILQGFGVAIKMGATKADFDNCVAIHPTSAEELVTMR
Procedure: To determine in vitro yeast GR activity, compounds of concentrations 1-100 μM were incubated with 20 nM yeast GR and 200 μM NADPH in a volume of 100 μl phosphate buffer (0.1 M sodium phosphate, 2 mM EDTA pH 7.5) for 1 h at room temperature. At the end of the incubation, 100 μl of […] GSSG (final concentration 500 μM) and 200 μM NADPH in phosphate buffer was added to each well. NADPH consumption was monitored by measurement of absorbance at 340 nm using the VersaMax microplate reader. The results were calculated based on decrease in absorbance in the initial 90 s and expressed as a percentage of the enzyme activity of the DMSO-treated sample. For determination of cellular GR activity, 25 μg of cell lysate was mixed with a solution of GSSG and NADPH in phosphate buffer to a final volume of 200 μl (final GSSG and NADPH concentrations 1 mM and 200 μM respectively). The enzyme activity was determined by measuring the decrease in absorbance at 340 nm for 10 min at 37°C and expressed as a percentage of the enzyme activity of that of the DMSO-treated sample.

Row | Structure (SMILES) | bovine GPx activity (bovine GPx) | yeast GR activity (yeast GR)
1 | CC(=O)C=C1C(=O)N(C)c2ccccc21 [Compound 1, 1-methyl-3(2-oxopropylidene)indolin-2-one] | uninhibited | uninhibited
2 | CCCCN1C(=O)/C(=C/C(C)=O)c2ccccc21 [Compound 4] | uninhibited | uninhibited
3 | CC(=O)/C=C1/C(=O)N(Cc2ccccc2)c2ccccc21 [Compound 5] | uninhibited | uninhibited
4 | CN1C(=O)/C(=C/C(=O)c2ccccc2)c2ccccc21 [Compound 6] | uninhibited | uninhibited
